Measurements reported in ChEMBL document CHEMBL1201862, “PubChem BioAssay data set” (2004).
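Grown in 96-well plates, cells were treated for 48 hours with each compound at five concentrations. Insufficient inhibition: endpoint recorded as highest concentration tested. GI50: concentration for 50% inhibition of growth.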 The source made the active and inactive calls. Cut-off read from the data, not from the text of the source: active = GI50 up to about 1.1 µM and inactive = higher.

Experiments:
Assay in all cases: DTP human tumour cell line panel, 48 h
[1] = system: NCI-H522
[2] = system: OVCAR-3
[3] = system: COLO 205
[4] = system: OVCAR-4
[5] = system: LOX IMVI
[6] = system: SF-539
[7] = system: OVCAR-8
[8] = system: UACC-62
[9] = system: HOP-62
[10] = system: SNB-19
[11] = system: SF-295
[12] = system: Malme-3M
[13] = system: A498
[14] = system: M14
[15] = system: SK-MEL-5
[16] = system: HCC 2998
[17] = system: HOP-92

Measured: GI50

COc1ccc(OC)c(/C=C2\CCc3ccccc3C2=O)c1
inactive: [1] 1.77 µM | [2] 2.71 µM | [3] 3.18 µM | [4] 6.52 µM | [5] 4.26 µM | [6] 2.6 µM | [7] 4.16 µM | [8] 1.76 µM | [9] 2.47 µM | [10] 5.6 µM | [11] 3.35 µM | [12] 3.72 µM | [13] 2.61 µM | [14] 3.59 µM | [15] 3.17 µM | [16] 2 µM | [17] 1.23 µM

CCC1NCC(=O)c2c1[nH]c1ccccc21 (configuration not stated)
inactive: [1] 91.6 µM | [2] > 100 µM | [3] > 100 µM | [4] > 100 µM | [5] > 100 µM | [6] > 100 µM | [7] > 100 µM | [8] > 100 µM | [10] > 100 µM | [11] > 100 µM | [12] > 100 µM | [13] > 100 µM | [14] > 100 µM | [15] > 100 µM | [16] > 100 µM | [17] > 100 µM

CN1CCN(C)C12C=CC=CC21CC1
inactive: [1] > 100 µM | [2] > 100 µM | [3] > 100 µM | [4] > 100 µM | [5] > 100 µM | [6] > 100 µM | [7] > 100 µM | [8] > 100 µM | [9] > 100 µM | [10] > 100 µM | [11] > 100 µM | [12] > 100 µM | [13] > 100 µM | [14] > 100 µM | [15] > 100 µM | [16] > 100 µM | [17] 58.9 µM

CN(C)c1nc(N(C)C)nc(N(C)CN(C)c2nc(N(C)C)nc(N(C)C)n2)n1
inactive: [1] 76.9 µM | [2] > 100 µM | [3] > 100 µM | [4] > 100 µM | [5] > 100 µM | [6] > 100 µM | [7] > 100 µM | [8] > 100 µM | [9] > 100 µM | [10] > 100 µM | [11] > 100 µM | [12] > 100 µM | [13] > 100 µM | [14] > 100 µM | [15] > 100 µM | [16] > 100 µM | [17] > 100 µM

Cc1c2ccncc2c(C)c2c1[nH]c1ccc(Oc3ccccc3)cc12
inactive: [1] 2.37 µM | [2] 2.46 µM | [3] 2.52 µM | [4] 2.62 µM | [5] 1.93 µM | [6] 1.88 µM | [7] 2.03 µM | [8] 1.74 µM | [9] 1.96 µM | [10] 10.6 µM | [11] 4.63 µM | [12] 1.79 µM | [13] 5.62 µM | [14] 1.82 µM | [15] 2.97 µM | [16] 1.94 µM | [17] 6.05 µM

C[C@]12CC[C@H](O)CC1=CC[C@@H]1C2CC[C@]2(C)C(=O)N(N)C(=O)CC12 (some centres not stated)
inactive: [1] > 100 µM | [2] > 100 µM | [3] > 100 µM | [4] > 100 µM | [5] > 100 µM | [6] > 100 µM | [7] > 100 µM | [8] > 100 µM | [9] > 100 µM | [10] > 100 µM | [11] > 100 µM | [12] > 100 µM | [13] > 100 µM | [14] > 100 µM | [15] > 100 µM | [16] > 100 µM | [17] > 100 µM

CC(N)C(=O)c1ccc(O)cc1 (configuration not stated)
inactive: [1] > 100 µM | [2] > 100 µM | [3] > 100 µM | [4] > 100 µM | [5] > 100 µM | [6] > 100 µM | [7] > 100 µM | [8] > 100 µM | [9] > 100 µM | [10] > 100 µM | [11] > 100 µM | [12] > 100 µM | [13] > 100 µM | [14] > 100 µM | [15] > 100 µM | [16] > 100 µM | [17] > 100 µM

COc1cc2c3c(c1OCc1ccccc1)NCCC3NCC2 (configuration not stated)
inactive: [1] > 100 µM | [2] > 100 µM | [3] > 100 µM | [4] > 100 µM | [5] > 100 µM | [6] > 100 µM | [7] > 100 µM | [8] > 100 µM | [9] > 100 µM | [10] > 100 µM | [11] > 100 µM | [12] > 100 µM | [13] > 100 µM | [14] > 100 µM | [15] > 100 µM | [16] > 100 µM | [17] 86.1 µM

COC(=O)CC(C(C(=O)OC)C(=O)OC)N1C(=O)OC(c2ccccc2)C1c1ccccc1 (configuration not stated)
inactive: [1] 69.5 µM | [2] > 100 µM | [3] 86.9 µM | [4] > 100 µM | [5] 38.9 µM | [6] > 100 µM | [7] > 100 µM | [8] > 100 µM | [9] > 100 µM | [10] > 100 µM | [11] > 100 µM | [12] > 100 µM | [13] > 100 µM | [14] > 100 µM | [15] > 100 µM | [16] 34 µM | [17] > 100 µM

O=C(O)CNCc1c2ccccc2[n+]([O-])c2ccccc12
inactive: [1] 46.1 µM | [2] > 100 µM | [3] > 100 µM | [4] 49.3 µM | [5] 36.6 µM | [7] 80.5 µM | [8] 58.1 µM | [9] > 100 µM | [10] > 100 µM | [11] > 100 µM | [12] > 100 µM | [13] > 100 µM | [14] > 100 µM | [15] 48.1 µM | [16] 21.7 µM | [17] 16.9 µM

CC1CN1P1(N2CC2C)=NP(N2CC2C)(N2CC2C)=NP(N2CC2C)(N2CC2C)=N1 (configuration not stated)
inactive: [1] > 50 µM | [2] > 50 µM | [3] > 50 µM | [4] > 50 µM | [6] > 50 µM | [7] > 50 µM | [10] > 50 µM | [11] > 50 µM | [12] > 50 µM | [13] > 50 µM | [14] > 50 µM | [15] > 50 µM | [16] > 50 µM | [17] > 50 µM

COc1ccc(/C(Cl)=C/c2cc(OC)ccc2OC)cc1
inactive: [1] 46.9 µM | [3] > 100 µM | [4] > 100 µM | [6] 64.7 µM | [7] 61.9 µM | [8] 38.4 µM | [9] > 100 µM | [10] > 100 µM | [11] 51.4 µM | [12] 93.3 µM | [13] 92.9 µM | [14] 63.8 µM | [15] 64.7 µM | [16] 87.5 µM | [17] 40.8 µM
